{
  "source": "ChEMBL document CHEMBL4342450",
  "about": "“Antitumor Activity of Ohmyungsamycin A through the Regulation of the Skp2-p27 Axis and MCM4 in Human Colorectal Cancer Cells” (J Nat Prod, 2020)",
  "key": {"HCT-116 [1]": {"tested_on": "HCT-116", "experiment": "Decrease in cell cycle associated protein expression in human HCT116 cells assessed as reduction in cyclin E expression at 5 to 20 uM after 24 hrs by Western blot analysis", "format": "functional, cell-based"}, "HCT-116 [2]": {"tested_on": "HCT-116", "experiment": "Induction of cell cycle arrest in human HCT116 cells assessed as accumulation at S phase at 10 uM incubated for 24 hrs by propidium iodide staining based flow cytometry (reference value: 21.2%)", "format": "functional"}, "HCT-116 [3]": {"tested_on": "HCT-116", "experiment": "Induction of cell cycle arrest in human HCT116 cells assessed as accumulation at G0/G1 phase incubated for 18 hrs by propidium iodide staining based flow cytometry", "format": "functional"}, "HCT-116 [4]": {"tested_on": "HCT-116", "experiment": "Induction of cell cycle arrest in human HCT116 cells assessed as accumulation at sub-G1 phase at 10 uM incubated for 18 hrs by propidium iodide staining based flow cytometry (reference value: 0.9%)", "format": "functional"}, "HCT-116 [5]": {"tested_on": "HCT-116", "experiment": "Induction of apoptosis in human HCT116 cells assessed as increase in cleaved PARP level at 20 uM after 24 hrs by Western blot analysis", "format": "functional, cell-based"}, "HCT-116 [6]": {"tested_on": "HCT-116", "experiment": "Induction of cell cycle arrest in human HCT116 cells assessed as accumulation at sub-G1 phase at 20 uM incubated for 18 hrs by propidium iodide staining based flow cytometry (reference value: 0.9%)", "format": "functional"}, "HCT-116 [7]": {"tested_on": "HCT-116", "experiment": "Modulation of Skp2-p27 Axis in human HCT116 cells assessed as upregulation of p27 expression after 24 hrs by Western blot analysis", "format": "functional, cell-based"}, "HCT-116 [8]": {"tested_on": "HCT-116", "experiment": "Decrease in cell cycle associated protein expression in human HCT116 cells assessed as reduction in CDK4 expression at 5 to 20 uM after 24 hrs by Western blot analysis", "format": "functional, cell-based"}, "HCT-116 [9]": {"tested_on": "HCT-116", "experiment": "Effect on Cul1 expression in human HCT116 cells at 5 to 20 uM after 24 hrs by Western blot analysis", "format": "functional, cell-based"}, "Mus musculus": {"tested_on": "Mus musculus", "experiment": "In vivo modulation of Skp2-p27 axis in tumor of BALB/c nude mouse xenografted with human HCT116 cells assessed as downregulation of Skp2 level at 5 to 10 m/kg, ip administered thrice a week for 3.5 weeks by Western blot analysis", "format": "functional, organism-based"}, "HCT-116 [10]": {"tested_on": "HCT-116", "experiment": "Downregulation of GINS2 gene expression in human HCT116 cells assessed as fold change at 15 uM incubated for 24 hrs by cDNA microarray analysis relative to control", "format": "functional"}, "HCT-116 [11]": {"tested_on": "HCT-116", "experiment": "Antitumor activity against human HCT116 cells xenografted in BALB/c nude mouse assessed as tumor weight at 5 mg/kg, ip administered thrice a week for 3.5 weeks measured on last day (reference value: 100%)", "format": "functional"}, "HCT-116 [12]": {"tested_on": "HCT-116", "experiment": "Decrease in cell cycle associated protein expression in human HCT116 cells assessed as reduction in CDK6 expression at 5 to 20 uM after 24 hrs by Western blot analysis", "format": "functional, cell-based"}, "HCT-116 [13]": {"tested_on": "HCT-116", "experiment": "Induction of apoptosis in human HCT116 cells assessed as reduction in Bcl-2 level at 5 to 20 uM after 24 hrs by Western blot analysis", "format": "functional, cell-based"}},
  "note": "Activity calls are given as the source filed them. No cut-off for these calls is given here. *1 amine or outer side, *2 acyl side, *3 side chain or, on linkers, in order; H or OH if unused. Where a SMILES comes first, the peptide text is derived from it. Bridges are numbered along the chain shown (N, C = ends). [ ]: non-standard residue; d: D form. Phe(3R-OH) = O=C([C@@H](N[*:1])[C@H](O[*:3])c1ccccc1)[*:2]; NMeTrp(4-OMe) = CN[C@@H](Cc1c[nH]c2cccc(OC)c12)C(=O)O; NMeT = CN[C@H](C(=O)O)[C@@H](C)O; NMeL = CN[C@@H](CC(C)C)C(=O)O; NMeV = CN[C@H](C(=O)O)C(C)C",
  "data": [
    {"smiles": "CN[C@H](C(=O)N[C@H](C(=O)N[C@@H]1C(=O)N(C)[C@@H]([C@@H](C)O)C(=O)N[C@@H](C(C)C)C(=O)N(C)[C@@H](CC(C)C)C(=O)N[C@@H](C(C)C)C(=O)N(C)[C@@H](C(C)C)C(=O)N(C)[C@@H](Cc2c[nH]c3cccc(OC)c23)C(=O)N[C@@H](C(C)C)C(=O)N[C@@H]([C@H](O)c2ccccc2)C(=O)N[C@@H](C(C)C)C(=O)O[C@@H]1C)C(C)C)C(C)C", "note": "(H-[NMeV]VT[NMeT]V[NMeL]V[NMeV][NMeTrp(4-OMe)]V[Phe(3R-OH)]V; ester 3-C)", "values": [
      {"measurement": "inhibition", "setting": "HCT-116 [1]", "result": "Active"},
      {"measurement": "Activity", "setting": "HCT-116 [2]", "result": 4.4, "unit": "%"},
      {"measurement": "Activity", "setting": "HCT-116 [3]", "result": "Dose-dependent effect"},
      {"measurement": "Activity", "setting": "HCT-116 [4]", "result": 1.8, "unit": "%"},
      {"measurement": "Activity", "setting": "HCT-116 [5]", "result": "Active"},
      {"measurement": "Activity", "setting": "HCT-116 [6]", "result": 7.1, "unit": "%"},
      {"measurement": "Activity", "setting": "HCT-116 [7]", "result": "Dose-dependent effect"},
      {"measurement": "inhibition", "setting": "HCT-116 [8]", "result": "Active"},
      {"measurement": "Activity", "setting": "HCT-116 [9]", "result": "inactive"},
      {"measurement": "inhibition", "setting": "Mus musculus", "result": "Active"},
      {"measurement": "fold change (FC)", "setting": "HCT-116 [10]", "result": 7.45},
      {"measurement": "Activity", "setting": "HCT-116 [11]", "result": 70.3, "unit": "%"},
      {"measurement": "inhibition", "setting": "HCT-116 [12]", "result": "Active"},
      {"measurement": "Activity", "setting": "HCT-116 [13]", "result": "Active"}
    ]}
  ]
}
